Measured values as given in US11731955B2, “Crystal habit of quinoline derivative and preparation method for crystalline powder thereof” (CHIA TAI TIANQING PHARMACEUTICAL GROUP CO., LTD, priority 2018, dated 2023).
Where a name gives a salt, the structure may show the parent alone.

Legend:
Format in all cases: physicochemical
[1] = Determination of solubility (saturation concentration); conditions: for solubility thermodynamic at 24 h: aqueous buffer, thermodynamic from solid, shaker at 37° C.
Protocol: 14.16 mg of the crystalline powder of the compound of the formula II acquired in Example 1 was dissolved, shaken overnight (24 hours) on a shaker at 37° C. and cooled to room temperature. The saturation concentration was measured using the supernatant. As a result, the saturation concentrations in the phosphoric acid solutions at pH 6.8 and 7.0 for 24 hours were 0.8 and 0.3 μg/mL, respectively.

[2] = Dissolution properties of powders by basket method; conditions: 100 rpm, dihydrochloride; for Cumulative dissolution % (0.1 mol/L hydrochloric acid): 1000 mL
Protocol: The dissolution properties of powders 1 and 2 in 1000 mL of 0.1 mol/L aqueous hydrochloric acid solution and a standard medium of 10 mM phosphate buffer containing 0.075% SDS, pH 6.8 were measured by basket method at 100 rpm and compared.

[3] = Specific surface area by multipoint BET measurement; conditions: for A (specific surface area): pulverized powders, dihydrochloride
Protocol: In the present application, the specific surface area A used herein refers to the total area per unit mass (m^2/g), as determined by multipoint BET specific surface area measurement.
The specific surface area was determined by multipoint BET specific surface area measurement, in which the absolute adsorption quantity of nitrogen in a sample was measured under different partial pressures, and the single-layer adsorption quantity was calculated by the BET theory, thus giving the specific surface area.

[4] = Particle-size distribution by laser particle size analyzer; conditions: laser particle-size distribution of pulverized powders; dihydrochloride
Excerpt: “X10” as used herein refers to the particle size for 10% of the particles in the particle size distribution, i.e., the fraction of particles smaller than this particle size accounts for 10% of all particles; “X50” refers to the particle size for 50% of the particles in the particle size distribution, i.e., the fraction of particles smaller than this particle size accounts for 50% of all particles; “X90” refers to a particle size for 90% of the particles in the particle size distribution, i.e., the fraction of particles smaller than this particle size accounts for 90% of all particles.
The particle-size distribution of the materials was determined by laser. Instrument: fully automatic dry and wet two-in-one laser particle size analyzer, VIBRI (HELOSBR).

SMILES | Biopharmaceutical Classification System (BCS) solubility classification [1] | solubility thermodynamic at 24 h ([1]; phosphoric acid solution pH 6.8, 24 hours) | solubility thermodynamic at 24 h ([1]; phosphoric acid solution pH 7.0, 24 hours) | Cumulative dissolution % (10 mM phosphate buffer containing 0.075% SDS, pH 6.8) ([2]; 3 min) | Cumulative dissolution % (0.1 mol/L hydrochloric acid) ([2]; 3 min) | Cumulative dissolution % (10 mM phosphate buffer containing 0.075% SDS, pH 6.8) ([2]; 5 min) | Cumulative dissolution % (0.1 mol/L hydrochloric acid) ([2]; 5 min) | A (specific surface area) [3] | X50 [4] | X90 [4] | specific surface area ([3]; bulk crystal recrystallized in ethanol (Comparative Example 1))
COc1cc2c(Oc3ccc4[nH]c(C)cc4c3F)ccnc2cc1OCC1(N)CC1 [Example 1, Anlotinib dihydrochloride] | low solubility | 0.8 µg/mL | 0.3 µg/mL | – | – | – | – | – | – | – | –
COc1cc2c(Oc3ccc4[nH]c(C)cc4c3F)ccnc2cc1OCC1(N)CC1 [Powder 1, Anlotinib dihydrochloride] | – | – | – | 77.4% | 89.6% | 90.2% | 94.2% | 11.09 ± 0.04 m^2/g | 3.96 μm | 64.89 μm | –
COc1cc2c(Oc3ccc4[nH]c(C)cc4c3F)ccnc2cc1OCC1(N)CC1 [Powder 2, Anlotinib dihydrochloride] | – | – | – | 80.1% | 93.7% | 86.4% | 95.8% | 13.07 ± 0.05 m^2/g | 2.66 μm | 14.01 μm | –
COc1cc2c(Oc3ccc4[nH]c(C)cc4c3F)ccnc2cc1OCC1(N)CC1 [Anlotinib dihydrochloride, reference compound] | – | – | – | – | – | – | – | – | – | – | 3.4750 m^2/g
